PMC10545747, “Development of cyclopeptide inhibitors of cGAS targeting protein-DNA interaction and phase separation” (Nature Communications, 2023)
Converted amounts (≈) assume the structure as drawn. “And” between values parts separate entries of the source, which are not always exact repeats. Equal entries are not always repeated. Where two headings read alike, the source gives them in different places. Square brackets hold non-standard residues; d marks the D form. Peptide text beside a SMILES is read from it.

Key:
Jurkat cells = tested on: Jurkat cells
Protocol: Cell viability was measured by cell counting kit-8 (TargetMol) according to the manufacturer’s instructions.
(§1) Supplementary Fig. 3. […] (a) L929 cells were pretreated for
(§2) 4 h with DMSO or the indicated doses of XQ2, followed by stimulation with dsDNA for 4 h, and then cell lysates were
(§3) (b) Jurkat cells were exposed to the indicated doses of XQ2, and then stimulated with
(§4) Data are representative of three independent experiments in (a, b). (Data are presented as mean ± SD, n = 3 independent
(§5) provided as a Source Data file.
(§6) (1 picture or pasted object on this page, not shown here)

HSV-1 in THP1 cells = test: HSV-1(UL5) mRNA by qPCR (virus infection of cells); type: cell-based, herpes simplex virus-1; set-up: key to HSV-1(UL5) mRNA, qPCR, Fig. 5d / HSV-1(UL5) mRNA (Fig. S8e): relative mRNA level, target CT normalized to GAPDH CT; conditions: for HSV-1(UL5) mRNA, qPCR, Fig. 5d: XQ2 10 μM
Protocol: The indicated cells were stimulated with either ISD (Sangon Biotech), HSV-1 (Provided by Dr. Zhengfan Jiang), HSV60mer (Sangon Biotech), SATE-cddA[70], 2’3’-cGAMP (Invivogen, Cat# tlrl-nacga23-1), ADU-S100 (MedChemExpress, Cat# HY-12885A) or Poly(I:C) (Invivogen, Cat# tlrl-pic) after XQ2 or XQ2B treatment. Total RNA was isolated from indicated cells that incubated with the drugs for indicated time or mice tissues by using NucleoZOL reagent (MACHEREY-NAGEL) according to the manufacturer’s instructions. The quantifications of mRNA levels were carried out by real-time PCR using a PerfectStart® Uni RT&qPCR Kit (TransGen Biotech) on the QuantStudio 5 qPCR machine (Applied Biosystems). Samples were carried out in triplicate and the target CT values were normalized to GAPDH CT values. Primers of qPCR used in this study can be found in Supplementary Table S2.

physchem = test: physchem
Protocol: Supplementary Fig. 7. […] (a) THP1 cells were exposed to the indicated doses of XQ2 or XQ2B for 48h. The cell viability was measured by CCK8 assay. (b) The comparison of solubility of XQ2 and XQ2B. The maximum concentration of XQ2 or XQ2B dissolved in water was measured by a spectrophotometer at 280nm. […]
Data are representative of three independent experiments with similar results in (e), or three independent experiments in (a -d, f, g) . (Data are presented as mean ± SD, n = 3 independent samples in (a-d, f, g), ns, not significant, **p < 0.01, ***p < 0.001, ****p < 0.0001 using one-way ANOV A with Dunnett’s post hoc test). Source data are provided as a Source Data file.

L929 cells = test: ISD-induced autophagy, LC3-II immunoblotting; type: cell-based, mouse; conditions: for LC3-II relative gray ratio (normalized to GAPDH), Fig. S3a: ISD +
Protocol: Total cell lysates were prepared in RIPA lysis buffer (Beyotime Biotechnology) supplemented with 1 mM PMSF and 1× protease inhibitor cocktail (Yeasen), and nuclear protein was extracted by nuclear protein extraction kit (Solarbio) in accordance with the manufacturer’s instructions. The samples were separated by SDS-PAGE and transferred to the PVDF membrane (Millipore). The membranes were incubated with the indicated primary antibodies at 4 °C overnight and then incubated with an HRP-conjugated anti-rabbit IgG antibody (Cell Signaling, Cat# 7074, 1:5000) or anti-mouse IgG antibody (Cell Signaling, Cat# 7076, 1:5000) at room temperature for 1 h. The signal was visualized by using the NcmECL Ultra kit (New Cell & Molecular Biotech) and then was exposed by using MiniChemi (SageCreation).
as §1, §2, §3, §4, §5, §6

[1] = tested on: HSV-1-infected THP1 cells; test: qPCR of IFNB1/CXCL10/IL6 mRNA in THP1 cells stimulated by HSV-1 infection; type: cell-based, human

For `CC(C)C[C@@H]1NC(=O)[C@H](CCCNC(=N)N)NC(=O)[C@H](C(C)C)NC(=O)[C@@H]2CCCN2C(=O)[C@@H](Cc2ccccc2)NC(=O)[C@H](CC(C)C)NC(=O)[C@H](CCCNC(=N)N)NC(=O)[C@H](C(C)C)NC(=O)[C@H](C)NC(=O)[C@@H](Cc2ccccc2)NC1=O` [XQ2, Cyclo (LfAVRLfPVR)] (cyclo(L[dF]AVRL[dF]PVR)), the “ISD-induced cell death” value (Jurkat cells) was “markedly suppressed ISD-induced cell death”, the “HSV-1 infection of THP1 cells, HSV1(UL5) mRNA” value (HSV-1 in THP1 cells; 10 μM) was “substantially facilitated HSV-1 infection of THP1 cells” and the “HSV-1(UL5) mRNA, qPCR, Fig. 5d” value (HSV-1 in THP1 cells; HSV-1(1×104)24h) was 1.256 and 1.311 and 1.284. For the same compound, the “HSV-1(UL5) mRNA, qPCR, Fig. 5d” value (HSV-1 in THP1 cells; HSV-1(1×104)48h) was 9.927 and 7.927 and 10.0304, the “HSV-1(UL5) mRNA, qPCR, Fig. 5d” value (HSV-1 in THP1 cells; HSV-1(2×104)24h) was 4.976 and 4.739 and 4.656 and the “HSV-1(UL5) mRNA, qPCR, Fig. 5d” value (HSV-1 in THP1 cells; HSV-1(2×104)48h) was 18.9511 and 21.7278 and 21.8028. For the same compound, the “solubility” value (physchem) was “low solubility at higher concentrations”, the solubility (physchem; Concentration (solubility, Fig. S7b)) was 860 µg/mL (≈ 717 µM) and the “ISD-induced autophagy, LC3-II formation” value (L929 cells) was “significantly reduced ISD-induced autophagy”. For the same compound, the “LC3-II relative gray ratio (normalized to GAPDH), Fig. S3a” value (L929 cells; XQ2 5 μM) was 1.62 and 1.737 and 1.498, the “LC3-II relative gray ratio (normalized to GAPDH), Fig. S3a” value (L929 cells; XQ2 10 μM) was 1.275 and 1.336 and 1.295 and the “CXCL10 mRNA (Fig. S2b)” value ([1]; HSV-1, XQ2 0.31 μM) was 13697.8 and 18057.7 and 19972.6. The “IFNB1 mRNA (Fig. S2b)” value ([1]; HSV-1, XQ2 0.31 μM) was 103.029 and 97.656 and 104.314, the “IL6 mRNA (Fig. S2b)” value ([1]; HSV-1, XQ2 0.31 μM) was 94.9854 and 106.129 and 109.338 and the “CXCL10 mRNA (Fig. S2b)” value ([1]; HSV-1, XQ2 0.63 μM) was 14561.5 and 17791.3 and 14971.8. The “IFNB1 mRNA (Fig. S2b)” value ([1]; HSV-1, XQ2 0.63 μM) was 91.2373 and 106.205 and 112.809, the “IL6 mRNA (Fig. S2b)” value ([1]; HSV-1, XQ2 0.63 μM) was 98.3879 and 100.916 and 99.3832 and the “CXCL10 mRNA (Fig. S2b)” value ([1]; HSV-1, XQ2 1.25 μM) was 13878.7 and 14634.4 and 14561.7. The “IFNB1 mRNA (Fig. S2b)” value ([1]; HSV-1, XQ2 1.25 μM) was 97.5861 and 86.027 and 97.3512, the “IL6 mRNA (Fig. S2b)” value ([1]; HSV-1, XQ2 1.25 μM) was 83.7674 and 88.7511 and 90.6215 and the “CXCL10 mRNA (Fig. S2b)” value ([1]; HSV-1, XQ2 2.5 μM) was 11116.4 and 12643.3 and 12467.1. For the same compound, the “IFNB1 mRNA (Fig. S2b)” value ([1]; HSV-1, XQ2 2.5 μM) was 73.1655 and 85.1476 and 97.1694, the “IL6 mRNA (Fig. S2b)” value ([1]; HSV-1, XQ2 2.5 μM) was 59.5539 and 58.6936 and 59.7795 and the “CXCL10 mRNA (Fig. S2b)” value ([1]; HSV-1, XQ2 5 μM) was 4443.66 and 5989.75 and 4916.38. The “IFNB1 mRNA (Fig. S2b)” value ([1]; HSV-1, XQ2 5 μM) was 58.3528 and 60.5599 and 78.4822, the “IL6 mRNA (Fig. S2b)” value ([1]; HSV-1, XQ2 5 μM) was 37.2474 and 41.0154 and 36.4161 and the “CXCL10 mRNA (Fig. S2b)” value ([1]; HSV-1, XQ2 10 μM) was 610.463 and 931.698 and 780.881. The “IFNB1 mRNA (Fig. S2b)” value ([1]; HSV-1, XQ2 10 μM) was 20.0242 and 25.5972 and 33.1577, the “CXCL10 mRNA (Fig. S2b)” value ([1]; Mock, XQ2 0.31 μM) was 0.6255 and 0.7855 and 0.8542 and the “IFNB1 mRNA (Fig. S2b)” value ([1]; Mock, XQ2 0.31 μM) was 0.7527 and 0.6452 and 0.8722. The “IL6 mRNA (Fig. S2b)” value ([1]; Mock, XQ2 0.31 μM) was 0.9875 and 1.125 and 1.458, the “CXCL10 mRNA (Fig. S2b)” value ([1]; Mock, XQ2 0.63 μM) was 0.4588 and 0.432 and 0.4044 and the “IFNB1 mRNA (Fig. S2b)” value ([1]; Mock, XQ2 0.63 μM) was 0.713 and 0.5919 and 0.8053. For the same compound, the “IL6 mRNA (Fig. S2b)” value ([1]; Mock, XQ2 0.63 μM) was 1.48 and 1.078 and 1.222, the “CXCL10 mRNA (Fig. S2b)” value ([1]; Mock, XQ2 1.25 μM) was 1.308 and 1.359 and 1.615 and the “IFNB1 mRNA (Fig. S2b)” value ([1]; Mock, XQ2 1.25 μM) was 0.9026 and 1.107 and 1.382.
